Reference: ChEMBL document CHEMBL1137192, “Synthesis and neurotrophic activity of nonimmunosuppressant cyclosporin A derivatives” (Bioorg Med Chem Lett, 2004)

What was measured:
T-cell = experiment: Inhibition of T-cell proliferation; assay type: functional; details: read-out: ED50 (the source's name)
[1] = target: Peptidyl-prolyl cis-trans isomerase A (Homo sapiens, UniProt P62937); experiment: Inhibition of cyclophilin A rotamase
Chain of Peptidyl-prolyl cis-trans isomerase A (P62937 whole entry): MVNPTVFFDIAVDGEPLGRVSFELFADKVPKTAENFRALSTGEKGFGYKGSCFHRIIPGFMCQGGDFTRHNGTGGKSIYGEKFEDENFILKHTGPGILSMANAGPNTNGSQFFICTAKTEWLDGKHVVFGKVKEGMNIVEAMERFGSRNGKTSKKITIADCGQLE

SMILES | EC50 (T-cell) [nM] | Ki [1] [nM]
C/C=C/C[C@@H](C)[C@@H](O)[C@H]1C(=O)N[C@@H](CC)C(=O)N(C)CC(=O)N(C)[C@@H](CC)C(=O)N[C@@H](C(C)C)C(=O)N(C)[C@@H](CC(C)C)C(=O)N[C@@H](C)C(=O)N[C@H](C)C(=O)N(C)[C@@H](CC(C)C)C(=O)N(C)[C@@H](CC(C)C)C(=O)N(C)[C@@H](C(C)C)C(=O)N1C | > 10000 | 
CCCC[C@@H](C)[C@@H](O)[C@H]1C(=O)N[C@@H](CC)C(=O)N(C)CC(=O)N(C)[C@@H](CC(C)C)C(=O)N[C@@H](C(C)C)C(=O)N(C)[C@@H](CC(C)C)C(=O)N[C@@H](C)C(=O)N[C@H](C)C(=O)N(C)[C@@H](CC(C)C)C(=O)N(C)[C@@H](CC(C)C)C(=O)N(C)[C@@H](C(C)C)C(=O)N1C | 130 | 
C/C=C/C[C@@H](C)C(O)[C@H]1C(=O)N[C@@H](CC)C(=O)N(C)CC(=O)N(C)[C@H](CC(C)C)C(=O)N[C@](C)(C(C)O)C(=O)N(C)[C@@H](CC(C)C)C(=O)N[C@@H](C)C(=O)N[C@H](C)C(=O)N(C)[C@H](CC(C)C)C(=O)N(C)[C@@H](CC(C)C)C(=O)N(C)[C@@H](C(C)C)C(=O)N1C (stereo not given in full) | > 10000 | 18
C=C1NC(=O)[C@H](C)NC(=O)[C@H](CC(C)C)N(C)C(=O)[C@H](C(C)C)NC(=O)[C@H](CC(C)C)N(C)C(=O)CN(C)C(=O)[C@H](CC)NC(=O)[C@H]([C@H](O)[C@H](C)C/C=C/C)N(C)C(=O)[C@H](C(C)C)N(C)C(=O)[C@H](CC(C)C)N(C)C(=O)[C@H](CC(C)C)N(C)C1=O | > 10000 | 
